# Source: ChEMBL document CHEMBL3603774, “Novel 5-functionalized-pyrazoles: Synthesis, characterization and pharmacological screening” (Bioorg Med Chem Lett, 2015)
# Key:
# Aspergillus flavus [1] = assay: Antifungal activity against Aspergillus flavus MTCC 873 assessed as concentration required to completely destroy test microorganisms after 24 hrs; type: functional
# Aspergillus flavus [2] = assay: Antifungal activity against Aspergillus flavus MTCC 873 at 50 ug/ml after 24 hrs by disc diffusion method; type: functional; conditions: for zone of inhibition at 50 µg/mL: MTCC 873, 24 h, read-out: IZ
# Aspergillus niger [3] = assay: Antifungal activity against Aspergillus niger MTCC 281 assessed as concentration required to completely destroy test microorganisms after 24 hrs; type: functional
# Aspergillus niger [4] = assay: Antifungal activity against Aspergillus niger MTCC 281 after 48 hrs by microdilution method; type: functional
# Aspergillus flavus [5] = assay: Antifungal activity against Aspergillus flavus MTCC 873 after 48 hrs by microdilution method; type: functional
# Aspergillus flavus [6] = assay: Antifungal activity against Aspergillus flavus MTCC 873 at 100 ug/ml after 24 hrs by disc diffusion method; type: functional; conditions: for zone of inhibition at 100 µg/mL: MTCC 873, 24 h, read-out: IZ
# Klebsiella pneumoniae [7] = assay: Antibacterial activity against Klebsiella pneumoniae MTCC 3384 after 24 hrs by microdilution method; type: functional; conditions: MTCC 3384, 24 h
# Escherichia coli [8] = assay: Antibacterial activity against Escherichia coli MTCC 724 at 100 ug/ml after 24 hrs by disc diffusion method; type: functional; conditions: MTCC 724, 24 h, read-out: IZ
# Bacillus cereus [9] = assay: Antibacterial activity against Bacillus cereus MTCC 8372 at 100 ug/ml after 24 hrs by disc diffusion method; type: functional; conditions: MTCC 8372, 24 h, read-out: IZ
# Bacillus cereus [10] = assay: Antibacterial activity against Bacillus cereus MTCC 8372 at 50 ug/ml after 24 hrs by disc diffusion method; type: functional; conditions: MTCC 8372, 24 h, read-out: IZ
# Bacillus cereus [11] = assay: Antibacterial activity against Bacillus cereus MTCC 8372 assessed as concentration required to completely destroy test microorganisms after 24 hrs; type: functional; conditions: MTCC 8372, 24 h
# Escherichia coli [12] = assay: Antibacterial activity against Escherichia coli MTCC 724 assessed as concentration required to completely destroy test microorganisms after 24 hrs; type: functional; conditions: MTCC 724, 24 h
# Aspergillus niger [13] = assay: Antifungal activity against Aspergillus niger MTCC 281 at 50 ug/ml after 24 hrs by disc diffusion method; type: functional; conditions: MTCC 281, 24 h, read-out: IZ
# Escherichia coli [14] = assay: Antibacterial activity against Escherichia coli MTCC 724 after 24 hrs by microdilution method; type: functional; conditions: MTCC 724, 24 h
# [15] = Inhibition of alpha-glucosidase (unknown origin) using p-nitrophenol glycoside as substrate after 30 mins by colorimetric analysis; design: species or system Homo sapiens
# Klebsiella pneumoniae [16] = assay: Antibacterial activity against Klebsiella pneumoniae MTCC 3384 assessed as concentration required to completely destroy test microorganisms after 24 hrs; type: functional; conditions: MTCC 3384, 24 h
# Staphylococcus aureus [17] = assay: Antibacterial activity against Staphylococcus aureus MTCC 96 at 50 ug/ml after 24 hrs by disc diffusion method; type: functional; conditions: MTCC 96, 24 h, read-out: IZ
# Bacillus cereus [18] = assay: Antibacterial activity against Bacillus cereus MTCC 8372 after 24 hrs by microdilution method; type: functional; conditions: MTCC 8372, 24 h
# Klebsiella pneumoniae [19] = assay: Antibacterial activity against Klebsiella pneumoniae MTCC 3384 at 50 ug/ml after 24 hrs by disc diffusion method; type: functional; conditions: MTCC 3384, 24 h, read-out: IZ
# Staphylococcus aureus [20] = assay: Antibacterial activity against Staphylococcus aureus MTCC 96 after 24 hrs by microdilution method; type: functional; conditions: MTCC 96, 24 h
# Aspergillus niger [21] = assay: Antifungal activity against Aspergillus niger MTCC 281 at 100 ug/ml after 24 hrs by disc diffusion method; type: functional; conditions: MTCC 281, 24 h, read-out: IZ
# Alpha amylase = target: T1, Alpha amylase (Homo sapiens, UniProt P0DUB6); assay: Inhibition of alpha-amylase (unknown origin) using starch as substrate after 30 mins by spectrophotometer analysis
# T1 sequence (P0DUB6 whole entry): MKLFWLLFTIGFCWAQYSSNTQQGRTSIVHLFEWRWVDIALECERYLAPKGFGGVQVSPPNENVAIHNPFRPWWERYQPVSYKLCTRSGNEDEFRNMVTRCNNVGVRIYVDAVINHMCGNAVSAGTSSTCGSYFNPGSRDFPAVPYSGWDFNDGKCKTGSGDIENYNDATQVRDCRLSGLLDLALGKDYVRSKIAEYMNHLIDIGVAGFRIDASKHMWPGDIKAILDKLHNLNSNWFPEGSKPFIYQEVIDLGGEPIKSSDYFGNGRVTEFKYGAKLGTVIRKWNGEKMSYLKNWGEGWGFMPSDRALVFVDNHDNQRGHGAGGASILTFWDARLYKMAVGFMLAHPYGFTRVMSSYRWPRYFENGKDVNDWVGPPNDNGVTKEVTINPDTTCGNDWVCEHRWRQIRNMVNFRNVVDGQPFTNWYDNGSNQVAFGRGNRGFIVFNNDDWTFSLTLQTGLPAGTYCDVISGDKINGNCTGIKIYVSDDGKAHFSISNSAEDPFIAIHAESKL
# Staphylococcus aureus [22] = assay: Antibacterial activity against Staphylococcus aureus MTCC 96 at 100 ug/ml after 24 hrs by disc diffusion method; type: functional; conditions: MTCC 96, 24 h, read-out: IZ
# Klebsiella pneumoniae [23] = assay: Antibacterial activity against Klebsiella pneumoniae MTCC 3384 at 100 ug/ml after 24 hrs by disc diffusion method; type: functional; conditions: MTCC 3384, 24 h, read-out: IZ
# Staphylococcus aureus [24] = assay: Antibacterial activity against Staphylococcus aureus MTCC 96 assessed as concentration required to completely destroy test microorganisms after 24 hrs; type: functional; conditions: MTCC 96, 24 h
# Escherichia coli [25] = assay: Antibacterial activity against Escherichia coli MTCC 724 at 50 ug/ml after 24 hrs by disc diffusion method; type: functional; conditions: MTCC 724, 24 h, read-out: IZ
Compound,"MFC (Aspergillus flavus [1]; MTCC 873, 24 h)",MIC (Klebsiella pneumoniae [7]),zone of inhibition at 100 µg/mL (Escherichia coli [8]),zone of inhibition at 100 µg/mL (Bacillus cereus [9]),zone of inhibition at 50 µg/mL (Aspergillus flavus [2]),zone of inhibition at 50 µg/mL (Bacillus cereus [10]),MBC (Bacillus cereus [11]),MBC (Escherichia coli [12]),zone of inhibition at 50 µg/mL (Aspergillus niger [13]),MIC (Escherichia coli [14]),IC50 [15],MBC (Klebsiella pneumoniae [16]),zone of inhibition at 50 µg/mL (Staphylococcus aureus [17]),MIC (Bacillus cereus [18]),zone of inhibition at 50 µg/mL (Klebsiella pneumoniae [19]),MIC (Staphylococcus aureus [20]),zone of inhibition at 100 µg/mL (Staphylococcus aureus [22]),zone of inhibition at 100 µg/mL (Klebsiella pneumoniae [23]),MBC (Staphylococcus aureus [24]),zone of inhibition at 50 µg/mL (Escherichia coli [25]),further results
NYSTATIN,–,–,–,–,–,–,–,–,–,–,–,–,–,–,–,–,–,–,–,–,MFC (Aspergillus flavus [1]): 100 µg/mL; inhibition zone (IZ) (Aspergillus flavus [2]): 16 mm; MFC (Aspergillus niger [3]): 100 µg/mL; MIC (Aspergillus niger [4]): 10 µg/mL; MIC (Aspergillus flavus [5]): 8 µg/mL; inhibition zone (IZ) (Aspergillus flavus [6]): 20 mm
CCOC(=O)c1c(-c2ccccc2)nn(-c2ccccc2)c1Cn1c(S)nc2ccc(OC(F)F)cc21,155 µg/mL,15 µg/mL,33 mm,26 mm,18 mm,11 mm,130 µg/mL,135 µg/mL,12 mm,15 µg/mL,15 µg/mL,130 µg/mL,12 mm,10 µg/mL,16 mm,20 µg/mL,21 mm,28 mm,120 µg/mL,20 mm,"zone of inhibition at 100 µg/mL (Aspergillus niger [21]): 22 mm; MFC (Aspergillus niger [3]; MTCC 281, 24 h): 145 µg/mL; MIC (Aspergillus niger [4]; MTCC 281, 48 h): 25 µg/mL; IC50 (Alpha amylase): 10 µg/mL; MIC (Aspergillus flavus [5]; MTCC 873, 48 h): 30 µg/mL; zone of inhibition at 100 µg/mL (Aspergillus flavus [6]): 20 mm"
CCOC(=O)c1c(-c2ccccc2)nn(-c2ccccc2)c1Cn1cnc2cc([N+](=O)[O-])ccc21,290 µg/mL,25 µg/mL,18 mm,10 mm,6 mm,5 mm,200 µg/mL,180 µg/mL,5 mm,25 µg/mL,30 µg/mL,185 µg/mL,6 mm,35 µg/mL,6 mm,25 µg/mL,12 mm,11 mm,190 µg/mL,8 mm,"zone of inhibition at 100 µg/mL (Aspergillus niger [21]): 10 mm; MFC (Aspergillus niger [3]; MTCC 281, 24 h): 280 µg/mL; MIC (Aspergillus niger [4]; MTCC 281, 48 h): 65 µg/mL; IC50 (Alpha amylase): 30 µg/mL; MIC (Aspergillus flavus [5]; MTCC 873, 48 h): 55 µg/mL; zone of inhibition at 100 µg/mL (Aspergillus flavus [6]): 10 mm"
CCOC(=O)c1c(-c2ccccc2)nn(-c2ccccc2)c1Cn1c(Cl)nc2ccccc21,230 µg/mL,30 µg/mL,19 mm,14 mm,8 mm,6 mm,220 µg/mL,190 µg/mL,10 mm,35 µg/mL,20 µg/mL,190 µg/mL,9 mm,35 µg/mL,6 mm,30 µg/mL,11 mm,12 mm,160 µg/mL,9 mm,"zone of inhibition at 100 µg/mL (Aspergillus niger [21]): 10 mm; MFC (Aspergillus niger [3]; MTCC 281, 24 h): 215 µg/mL; MIC (Aspergillus niger [4]; MTCC 281, 48 h): 25 µg/mL; IC50 (Alpha amylase): 10 µg/mL; MIC (Aspergillus flavus [5]; MTCC 873, 48 h): 30 µg/mL; zone of inhibition at 100 µg/mL (Aspergillus flavus [6]): 9 mm"
CCOC(=O)c1c(-c2ccccc2)nn(-c2ccccc2)c1Cn1cnc2cc(C)ccc21,270 µg/mL,45 µg/mL,12 mm,11 mm,16 mm,8 mm,220 µg/mL,205 µg/mL,12 mm,40 µg/mL,45 µg/mL,240 µg/mL,6 mm,50 µg/mL,9 mm,45 µg/mL,12 mm,11 mm,205 µg/mL,8 mm,"zone of inhibition at 100 µg/mL (Aspergillus niger [21]): 24 mm; MFC (Aspergillus niger [3]; MTCC 281, 24 h): 165 µg/mL; MIC (Aspergillus niger [4]; MTCC 281, 48 h): 45 µg/mL; IC50 (Alpha amylase): 45 µg/mL; MIC (Aspergillus flavus [5]; MTCC 873, 48 h): 40 µg/mL; zone of inhibition at 100 µg/mL (Aspergillus flavus [6]): 21 mm"
CCOC(=O)c1c(-c2ccccc2)nn(-c2ccccc2)c1COc1ccccc1C=O,270 µg/mL,85 µg/mL,8 mm,16 mm,10 mm,4 mm,250 µg/mL,250 µg/mL,10 mm,65 µg/mL,40 µg/mL,260 µg/mL,2 mm,45 µg/mL,6 mm,55 µg/mL,12 mm,9 mm,220 µg/mL,3 mm,"zone of inhibition at 100 µg/mL (Aspergillus niger [21]): 10 mm; MFC (Aspergillus niger [3]; MTCC 281, 24 h): 225 µg/mL; MIC (Aspergillus niger [4]; MTCC 281, 48 h): 50 µg/mL; IC50 (Alpha amylase): 40 µg/mL; MIC (Aspergillus flavus [5]; MTCC 873, 48 h): 50 µg/mL; zone of inhibition at 100 µg/mL (Aspergillus flavus [6]): 5 mm"
CCOC(=O)c1c(-c2ccccc2)nn(-c2ccccc2)c1Cn1cnc2ccccc21,275 µg/mL,40 µg/mL,10 mm,12 mm,12 mm,6 mm,285 µg/mL,270 µg/mL,25 mm,55 µg/mL,30 µg/mL,220 µg/mL,6 mm,60 µg/mL,6 mm,55 µg/mL,12 mm,10 mm,290 µg/mL,8 mm,"zone of inhibition at 100 µg/mL (Aspergillus niger [21]): 20 mm; MFC (Aspergillus niger [3]; MTCC 281, 24 h): 280 µg/mL; MIC (Aspergillus niger [4]; MTCC 281, 48 h): 50 µg/mL; IC50 (Alpha amylase): 35 µg/mL; MIC (Aspergillus flavus [5]; MTCC 873, 48 h): 45 µg/mL; zone of inhibition at 100 µg/mL (Aspergillus flavus [6]): 15 mm"
CCOC(=O)c1c(-c2ccccc2)nn(-c2ccccc2)c1Cn1c(S)nc2ccccc21,290 µg/mL,25 µg/mL,16 mm,11 mm,14 mm,8 mm,160 µg/mL,175 µg/mL,10 mm,25 µg/mL,45 µg/mL,160 µg/mL,8 mm,20 µg/mL,8 mm,20 µg/mL,12 mm,14 mm,150 µg/mL,8 mm,"zone of inhibition at 100 µg/mL (Aspergillus niger [21]): 16 mm; MFC (Aspergillus niger [3]; MTCC 281, 24 h): 290 µg/mL; MIC (Aspergillus niger [4]; MTCC 281, 48 h): 40 µg/mL; IC50 (Alpha amylase): 40 µg/mL; MIC (Aspergillus flavus [5]; MTCC 873, 48 h): 50 µg/mL; zone of inhibition at 100 µg/mL (Aspergillus flavus [6]): 18 mm"
CN(C)[C@@H]1C(O)=C(C(N)=O)C(=O)[C@@]2(O)C(O)=C3C(=O)c4c(O)cccc4[C@@](C)(O)[C@H]3C[C@@H]12 [TETRACYCLINE],–,8 µg/mL,30 mm,22 mm,–,10 mm,120 µg/mL,120 µg/mL,–,12 µg/mL,–,120 µg/mL,10 mm,4 µg/mL,12 mm,10 µg/mL,20 mm,20 mm,120 µg/mL,18 mm,–
